# Data reported in ChEMBL document CHEMBL4261569, “Identification of novel N-acetylcysteine derivatives for the treatment of hepatocellular injury” (Medchemcomm, 2017).
# The source made the active and inactive calls. No cut-off for these calls is given here.
# Tests used:
# L02 [1] = assay: Cytoprotection against H2O2 induced cytotoxicity in human LO2 cells assessed as decrease in MDA level at 100 mmol after 15 mins by lipid oxidation assay; format: functional, cell-based
# L02 [2] = assay: Cytoprotection against APAP induced cytotoxicity in human LO2 cells assessed as increase in cell viability preincubated for 24 hrs followed by […] hrs by CCK-8 assay; format: functional, cell-based
# L02 [3] = assay: Cytoprotection against APAP induced cytotoxicity in human LO2 cells assessed as decrease in MDA level at 100 mmol after 15 mins by lipid oxidation assay; format: functional, cell-based
# L02 [4] = assay: Cytoprotection against H2O2 induced cytotoxicity in human LO2 cells assessed as increase in cell viability preincubated for 24 hrs followed by H2O2 addition measured after 6 hrs by CCK-8 assay; format: functional, cell-based
# L02 [5] = assay: Cytotoxicity against human LO2 cells assessed as reduction in cell viability after 24 hrs by CCK-8 assay; format: cell-based; details: l02, 24 h
# [6] = Cmax in Sprague-Dawley rat at 10 mg/kg, iv or 20 mg/kg, po by LC-MS/MS analysis; format: ADME, organism-based; details: in vivo
# [7] = Efflux ratio of apparent permeability across basolateral to apical side over apical to basolateral side in human Caco2 cells at 10 uM after 1.5 hrs by LC-MS/MS analysis; format: ADME, cell-based; details: Caco-2
# [8] = Apparent permeability across basolateral to apical side in human Caco2 cells at 10 uM after 1.5 hrs by LC-MS/MS analysis; format: ADME, cell-based; details: Caco-2
# [9] = Apparent permeability across apical to basolateral side in human Caco2 cells at 10 uM after 1.5 hrs by LC-MS/MS analysis; format: ADME, cell-based; details: Caco-2
# [10] = Terminal half life in Sprague-Dawley rat at 20 mg/kg, po by LC-MS/MS analysis; format: ADME, organism-based; details: in vivo, read-out: beta t1/2 (converted)
# [11] = Oral bioavailability in Sprague-Dawley rat at 20 mg/kg by LC-MS/MS analysis; format: ADME, organism-based; details: in vivo
# [12] = AUC in Sprague-Dawley rat at 10 mg/kg, iv or 20 mg/kg, po by LC-MS/MS analysis; format: ADME, organism-based; details: in vivo
# [13] = Drug excretion in iv dosed human; format: ADME, organism-based; details: in vivo, read-out: Drug excretion
# [14] = Oral bioavailability in human; format: ADME, organism-based; details: in vivo
# [15] = Terminal half life in iv dosed human plasma; format: ADME, organism-based; details: read-out: beta t1/2 (converted)
SMILES,Activity (L02 [1]),Activity (L02 [4]),further results
CSC[C@H](NC(C)=O)C(=O)Nc1ccccc1,Active,Active,Activity (L02 [2]): inactive; Activity (L02 [3]): Active
CCC(=O)N[C@@H](CSC)C(=O)O,Active,Active,–
CCC(=O)N[C@@H](CSC)C(=O)Nc1ccccc1,–,Active,–
COC(=O)[C@H](CSC)NC(C)=O,–,inactive,–
CSC[C@H](NC(=O)C1CCCCC1)C(=O)O,Active,Active,–
CNC(=O)[C@H](CSC)NC(=O)C1CCCCC1,Active,Active,–
CNC(=O)[C@H](CSC)NC(=O)c1ccccc1,inactive,Active,–
CSC[C@H](NC(=O)c1ccc(F)cc1)C(=O)OC(C)(C)C,–,inactive,Activity (L02 [5]): Toxic
CSC[C@H](NC(=O)c1ccccc1)C(=O)NC1CCCCC1,–,Active,–
CSC[C@H](NC(C)=O)C(=O)NC1CCCCC1,Active,Active,"Activity (L02 [2]): Active; Cmax [6]: 2140 ng/mL; efflux ratio at 1.5 h, 10 µM [7]: 1.11; Papp B→A at 1.5 h, 10 µM [8]: 21.8 ×10⁻⁶ cm/s; Papp A→B at 1.5 h, 10 µM [9]: 19.7 ×10⁻⁶ cm/s; half-life [10]: 5.62 h; bioavailability [11]: 52.8%; Activity (L02 [3]): Active; AUC [12]: 3080 ng·h/mL"
CSC[C@H](NC(C)=O)C(=O)O,Active,Active,–
CSC[C@H](NC(=O)c1ccccc1)C(=O)Nc1ccccc1,–,Active,–
COC(=O)[C@H](CSC)NC(=O)c1ccccc1,–,inactive,–
CC(=O)N[C@@H](CS)C(=O)O [ACETYLCYSTEINE],Active,–,"dose excreted [13]: 30%; bioavailability [14]: < 5%; Papp B→A at 1.5 h, 10 µM [8]: < 0.61 ×10⁻⁶ cm/s; half-life [15]: 5.6 h; Papp A→B at 1.5 h, 10 µM [9]: < 1.09 ×10⁻⁶ cm/s; Activity (L02 [3]): Active"
CCC(=O)N[C@@H](CSC)C(=O)NC1CCCCC1,Active,Active,Activity (L02 [2]): Active; Activity (L02 [3]): Active
CSC[C@H](NC(=O)C1CCCCC1)C(=O)OC(C)(C)C,–,inactive,Activity (L02 [5]): Toxic
CCC(=O)N[C@@H](CSC)C(=O)OC(C)(C)C,–,inactive,Activity (L02 [5]): Toxic
COC(=O)[C@H](CSC)NC(=O)c1ccc(F)cc1,–,inactive,–
CSC[C@H](NC(=O)c1ccccc1)C(=O)OC(C)(C)C,–,inactive,Activity (L02 [5]): Toxic
CSC[C@H](NC(=O)c1ccccc1)C(=O)O,Active,Active,–
CSC[C@H](NC(C)=O)C(=O)OC(C)(C)C,–,inactive,Activity (L02 [5]): Toxic
CCC(=O)N[C@@H](CSC)C(=O)OC,–,inactive,–
COC(=O)[C@H](CSC)NC(=O)C1CCCCC1,–,inactive,–
CCC(=O)N[C@@H](CSC)C(=O)NC,–,Active,–
CSC[C@H](NC(=O)c1ccc(F)cc1)C(=O)O,Active,Active,–
